Measured values reported in patent US8575091B1, “Amylin analogues and pharmaceutical compositions thereof” (Novo Nordisk A/S, priority 2012, dated 2013).
Read-outs that look alike come from different tables or passages of the source. Numbered stars: 1 amine (or outer) side, 2 acyl side, 3 side chain; on linkers, the order of the positions; unused ones are H or OH. Bridge positions count the residues as written; N and C are the ends. Side chains are listed from the residue outwards. Peptide text beside a SMILES is read from it. * marks the point of attachment. C20 diacid = O=C(O)CCCCCCCCCCCCCCCCCCC(=O)*; γGlu = O=C(O)[C@H](CCC(=O)[*:2])N[*:1]; AEEA = NCCOCCOCC(=O)O

Assays:
[1] = biological target: T1, human amylin receptor (amylin 3(a) receptor: human calcitonin receptor + RAMP-3) (Homo sapiens, UniProt O60896+P30988); assay: Assay (II)a functional assay, human amylin receptor (CRE luciferase, BHK cells); assay type: cell-based; details: for EC50: read-out: hAmylin-R funct. EC50
T1 construct: expressed in transfected cells
T1 sequence (P30988 25-474): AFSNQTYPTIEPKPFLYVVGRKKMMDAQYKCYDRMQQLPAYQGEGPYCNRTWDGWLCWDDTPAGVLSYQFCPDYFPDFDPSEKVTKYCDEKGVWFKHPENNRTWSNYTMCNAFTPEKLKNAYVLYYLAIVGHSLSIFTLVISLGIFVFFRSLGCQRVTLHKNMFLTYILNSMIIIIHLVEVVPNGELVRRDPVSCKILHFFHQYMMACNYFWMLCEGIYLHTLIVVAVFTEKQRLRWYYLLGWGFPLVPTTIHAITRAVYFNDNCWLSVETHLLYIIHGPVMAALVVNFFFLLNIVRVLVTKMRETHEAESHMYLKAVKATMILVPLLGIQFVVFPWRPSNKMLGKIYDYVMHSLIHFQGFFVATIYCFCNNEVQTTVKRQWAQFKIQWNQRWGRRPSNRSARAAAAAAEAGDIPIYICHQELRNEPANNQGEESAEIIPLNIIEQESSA
T1 sequence (O60896 24-148 partner): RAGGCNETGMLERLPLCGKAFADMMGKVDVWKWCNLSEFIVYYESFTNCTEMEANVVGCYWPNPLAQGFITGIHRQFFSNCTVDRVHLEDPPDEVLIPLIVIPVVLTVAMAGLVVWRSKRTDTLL

[2] = biological target: T2, human calcitonin receptor (Homo sapiens, UniProt P30988); assay: Assay (II)a functional assay, human calcitonin receptor (CRE luciferase, BHK cells);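 note: luminescence from a CRE-driven luciferase reporter, read by single photon counting after cells were exposed to test samples for 3 h at 37 °C under 5% CO2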; assay type: cell-based; details: read-out: hCTR funct. EC50
T2 construct: expressed in transfected cells
T2 sequence (P30988 25-474): T1 sequence (P30988 25-474)
Experimental: Assay (II)—Functional Assays
Consequently, transcription is activated by promoters containing multiple copies of the cAMP response element (CRE).
The cell line was further transfected with RAMP-3, using standard methods.
After incubation overnight at 37° C. and 5% CO2, the growth medium was replaced by 50 μl/well assay medium (DMEM (without phenol red), Glutamax™, 10% FBS, and 10 mM Hepes, pH 7.4). Further, 50 μl/well of standard or sample in assay buffer were added. After 3 hours incubation at 37° C. and 5% CO2, the assay medium with standard or sample were removed and replaced by 100 μl/well PBS. Further, 100 μl/well LucLite™ was added. The plates were sealed and incubated at room temperature for 30 minutes. Finally, luminescence was measured on a TopCounter (Packard) in SPC (single photon counting) mode.

human amylin receptor = biological target: T3, human amylin receptor (Homo sapiens, UniProt O60896+P30988); assay: Assay (V) binding to the human amylin receptor (SPA, 125I-rat amylin); details: for IC50: human amylin receptor membranes, SPA, read-out: hAmylin-R bind IC50
T3 construct: expressed in transfected cells
T3 sequence (P30988 25-474): T1 sequence (P30988 25-474)
T3 sequence (O60896 24-148 partner): T1 sequence (O60896 24-148 partner)
Outline: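 SPA competition binding on membranes from Amylin 3(a)/CRE-luc cells, 35 ng/μL membranes with 0.05 mg/well beads. Buffer 50 mM Hepes pH 7.4, 1 mM CaCl2, 5 mM MgCl2, 0.1% OA, 0.02% Tween20. IC50 from one-site competition fit as affinity measure.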

[3] = biological target: T2, human calcitonin receptor; assay: Assay (VII) binding to the human calcitonin receptor (SPA, 125I-Calcitonin); details: read-out: hCTR bind IC50;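 note: cell membranes coupled to SPA beads, competitive displacement read by scintillation counting, IC50 derived from a one-site competition fit as a measure of receptor affinity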
Experimental: Membranes were prepared in the following way; the cells were rinsed with PBS and incubated with Versene for approximately 5 min before harvesting. The cells were flushed with PBS and the cell-suspension was centrifuged for 5 min at 1000 rpm. […] The resulting pellet was resuspended in buffer 2 and protein concentration was measured (BCA protein Assay, Pierce). The homogenate was kept cold during the whole procedure. The membranes were kept at −80° C. until use. Assay was performed in a 384 well Optiplate (PerkinElmer) in a total volume of 40 ul. Membranes were mixed with SPA beads. Final concentration of membranes 35 ng/μL final and Final concentration of SPA beads was 0.05 mg/well. Test-compounds were dissolved in DMSO and further diluted in assay buffer (50 mM Hepes, pH 7.4, 1 mM CaCl2, 5 mM MgCl2, 0.1% OA and 0.02% Tween20). […] Samples were analyzed on TopCounter™ (Packard). The IC50 was calculated using (one site binding competition analysis) GraphPad Prism5 as a measure of receptor affinity.

[4] = functional assay, human amylin receptor
[5] = Table 6, human functional selectivity (hCTR EC50 / hAmylin-R EC50)
[6] = Table 6a, human functional selectivity (hCTR EC50 / hAmylin-R EC50), at least 5
[7] = Table 6j, hCTR funct. EC50 / hAmylin-R funct. EC50
[8] = Table 6k, hCTR funct. EC50 / hAmylin-R funct. EC50

CC[C@H](C)[C@H](NC(=O)[C@H](C)NC(=O)CNC(=O)[C@H](Cc1ccccc1)NC(=O)[C@H](CC(N)=O)NC(=O)[C@@H]1CCCN1C(=O)[C@H](CO)NC(=O)[C@H](CO)NC(=O)[C@H](Cc1c[nH]cn1)NC(=O)[C@H](CCCNC(=N)N)NC(=O)[C@H](CC(C)C)NC(=O)[C@H](Cc1ccccc1)NC(=O)[C@H](CC(N)=O)NC(=O)[C@H](C)NC(=O)[C@H](CC(C)C)NC(=O)[C@H](CCCNC(=N)N)NC(=O)[C@H](CCC(N)=O)NC(=O)[C@@H](NC(=O)[C@H](C)NC(=O)[C@@H]1CSSC[C@H](NC(=O)[C@@H](N)CCCCNC(=O)CC[C@H](NC(=O)CCCCCCCCCCCCC(=O)O)C(=O)O)C(=O)N[C@@H](CC(N)=O)C(=O)N[C@@H]([C@@H](C)O)C(=O)N[C@@H](C)C(=O)N[C@@H]([C@@H](C)O)C(=O)N1)[C@@H](C)O)C(=O)N1CCC[C@H]1C(=O)N[C@@H](CO)C(=O)N[C@@H](CO)C(=O)N[C@H](C(=O)N[C@@H](CC(N)=O)C(=O)N[C@H](C(=O)NCC(=O)N[C@@H](Cc1c[nH]cn1)C(=O)N[C@@H](CC(N)=O)C(=O)N[C@H](C(=O)N[C@@H](Cc1ccc(O)cc1)C(N)=O)[C@@H](C)O)C(C)C)[C@@H](C)O [Example 112]
EC50 [1, 4]: 0.028 nM | EC50 [2]: 1.09 nM | IC50 (human amylin receptor): 1.04 nM | IC50 [3]: 24.3 nM

CC[C@H](C)[C@H](NC(=O)[C@H](C)NC(=O)CNC(=O)[C@H](Cc1ccccc1)NC(=O)[C@H](CC(N)=O)NC(=O)[C@@H]1CCCN1C(=O)[C@H](CO)NC(=O)[C@H](CO)NC(=O)[C@H](Cc1c[nH]cn1)NC(=O)[C@H](CCCNC(=N)N)NC(=O)[C@H](CC(C)C)NC(=O)[C@H](Cc1ccccc1)NC(=O)[C@H](C)NC(=O)[C@H](C)NC(=O)[C@H](CC(C)C)NC(=O)[C@H](CCCNC(=N)N)NC(=O)[C@H](CCC(N)=O)NC(=O)[C@@H](NC(=O)[C@H](C)NC(=O)[C@@H]1CSSC[C@H](NC(=O)[C@@H](N)CCCCNC(=O)CC[C@H](NC(=O)CCCCCCCCCCCCCCCCCCC(=O)O)C(=O)O)C(=O)N[C@@H](CC(N)=O)C(=O)N[C@@H]([C@@H](C)O)C(=O)N[C@@H](C)C(=O)N[C@@H]([C@@H](C)O)C(=O)N1)[C@@H](C)O)C(=O)N1CCC[C@H]1C(=O)N[C@@H](CO)C(=O)N[C@@H](CO)C(=O)N[C@H](C(=O)N[C@@H](CC(N)=O)C(=O)N[C@H](C(=O)NCC(=O)N[C@@H](Cc1c[nH]cn1)C(=O)N[C@@H](CC(N)=O)C(=O)N[C@H](C(=O)N[C@@H](Cc1ccc(O)cc1)C(N)=O)[C@@H](C)O)C(C)C)[C@@H](C)O [Example 93] (H-K([γGlu-C20 diacid])CNTATCATQRLAAFLRHSSPNFGAIPSSTNVGHNTY-NH2; disulfide 2-7)
Ratio hCT/hAmylin funct. [1, 5]: 9.7 | Ratio hCT/hAmylin funct. [1, 6]: 9.7 | Ratio hCT/hAmylin funct. [1, 7]: 9.7 | Ratio hCT/hAmylin funct. [1, 8]: 9.7 | EC50 [1, 4]: 0.118 nM | EC50 [2]: 1.15 nM | IC50 (human amylin receptor): 0.176 nM | IC50 [3]: 17.8 nM

CC[C@H](C)[C@H](NC(=O)[C@H](C)NC(=O)CNC(=O)[C@H](Cc1ccccc1)NC(=O)[C@H](CC(N)=O)NC(=O)[C@@H]1CCCN1C(=O)[C@H](CO)NC(=O)[C@H](CO)NC(=O)[C@H](Cc1c[nH]cn1)NC(=O)[C@H](CCCNC(=N)N)NC(=O)[C@H](CC(C)C)NC(=O)[C@H](Cc1ccccc1)NC(=O)[C@H](CCCNC(=N)N)NC(=O)[C@H](C)NC(=O)[C@H](CC(C)C)NC(=O)[C@H](CCCNC(=N)N)NC(=O)[C@H](CCC(N)=O)NC(=O)[C@@H](NC(=O)[C@H](C)NC(=O)[C@@H]1CSSC[C@H](NC(=O)[C@@H](N)CCCCNC(=O)CC[C@H](NC(=O)CCCCCCCCCCCCCCCCCCC(=O)O)C(=O)O)C(=O)N[C@@H](CC(N)=O)C(=O)N[C@@H]([C@@H](C)O)C(=O)N[C@@H](C)C(=O)N[C@@H]([C@@H](C)O)C(=O)N1)[C@@H](C)O)C(=O)N1CCC[C@H]1C(=O)N[C@@H](CO)C(=O)N[C@@H](CO)C(=O)N[C@H](C(=O)N1CCC[C@H]1C(=O)N[C@H](C(=O)NCC(=O)N[C@@H](CO)C(=O)N[C@@H](CC(N)=O)C(=O)N[C@H](C(=O)N[C@@H](Cc1ccc(O)cc1)C(N)=O)[C@@H](C)O)C(C)C)[C@@H](C)O [Example 63] (H-K([γGlu-C20 diacid])CNTATCATQRLARFLRHSSPNFGAIPSSTPVGSNTY-NH2; disulfide 2-7)
EC50 [1, 4]: 0.037 nM | EC50 [2]: 5.13 nM | IC50 (human amylin receptor): 0.825 nM | IC50 [3]: 130 nM

CC[C@H](C)[C@H](NC(=O)[C@H](C)NC(=O)CNC(=O)[C@H](Cc1ccccc1)NC(=O)[C@H](CC(N)=O)NC(=O)[C@@H]1CCCN1C(=O)[C@H](CO)NC(=O)[C@H](CO)NC(=O)[C@H](Cc1c[nH]cn1)NC(=O)[C@H](CCCNC(=N)N)NC(=O)[C@H](CC(C)C)NC(=O)[C@H](Cc1ccccc1)NC(=O)[C@H](CC(N)=O)NC(=O)[C@H](C)NC(=O)[C@H](CC(C)C)NC(=O)[C@H](CCCNC(=N)N)NC(=O)[C@H](CCC(N)=O)NC(=O)[C@@H](NC(=O)[C@H](C)NC(=O)[C@@H]1CSSC[C@H](NC(=O)[C@@H](N)CCCCNC(=O)COCCOCCNC(=O)CC[C@H](NC(=O)CCCCCCCCCCCCCCCCCCC(=O)O)C(=O)O)C(=O)N[C@@H](CC(N)=O)C(=O)N[C@@H]([C@@H](C)O)C(=O)N[C@@H](C)C(=O)N[C@@H]([C@@H](C)O)C(=O)N1)[C@@H](C)O)C(=O)N1CCC[C@H]1C(=O)N[C@@H](CO)C(=O)N1CCC[C@H]1C(=O)N[C@H](C(=O)N[C@@H](CC(N)=O)C(=O)N[C@H](C(=O)NCC(=O)N1CCC[C@H]1C(=O)N[C@@H](CC(N)=O)C(=O)N[C@H](C(=O)N[C@@H](Cc1ccc(O)cc1)C(N)=O)[C@@H](C)O)C(C)C)[C@@H](C)O [Example 56] (H-K([AEEA-γGlu-C20 diacid])CNTATCATQRLANFLRHSSPNFGAIPSPTNVGPNTY-NH2; disulfide 2-7)
Ratio hCT/hAmylin funct. [1, 5]: 5.0 | Ratio hCT/hAmylin funct. [1, 6]: 5.0 | Ratio hCT/hAmylin funct. [1, 7]: 5.0 | EC50 ([1]; Table 6j, human amylin receptor functional): 0.102 nM | Ratio hCT/hAmylin funct. [1, 8]: 5.0 | EC50 [2]: 0.506 nM | IC50 (human amylin receptor): 0.049 nM | IC50 [3]: 2.09 nM

CC[C@H](C)[C@H](NC(=O)[C@H](C)NC(=O)CNC(=O)[C@H](Cc1ccccc1)NC(=O)[C@H](CC(N)=O)NC(=O)[C@@H]1CCCN1C(=O)[C@H](CO)NC(=O)[C@H](CO)NC(=O)[C@H](Cc1c[nH]cn1)NC(=O)[C@H](CCCNC(=N)N)NC(=O)[C@H](CC(C)C)NC(=O)[C@H](Cc1ccccc1)NC(=O)[C@H](CCC(=O)O)NC(=O)[C@H](C)NC(=O)[C@H](CC(C)C)NC(=O)[C@H](CCCNC(=N)N)NC(=O)[C@H](CCC(N)=O)NC(=O)[C@@H](NC(=O)[C@H](C)NC(=O)[C@@H]1CSSC[C@H](NC(=O)[C@H](CCCCN)NC(=O)CC[C@H](NC(=O)CCCCCCCCCCCCCCCCCCC(=O)O)C(=O)O)C(=O)N[C@@H](CC(N)=O)C(=O)N[C@@H]([C@@H](C)O)C(=O)N[C@@H](C)C(=O)N[C@@H]([C@@H](C)O)C(=O)N1)[C@@H](C)O)C(=O)N1CCC[C@H]1C(=O)N[C@@H](CO)C(=O)N[C@@H](CO)C(=O)N[C@H](C(=O)N1CCC[C@H]1C(=O)N[C@H](C(=O)NCC(=O)N[C@@H](CO)C(=O)N[C@@H](CC(N)=O)C(=O)N[C@H](C(=O)N[C@@H](Cc1ccc(O)cc1)C(N)=O)[C@@H](C)O)C(C)C)[C@@H](C)O [Example 31] ({C20 diacid-γGlu}-KCNTATCATQRLAEFLRHSSPNFGAIPSSTPVGSNTY-NH2; disulfide 2-7)
Ratio hCT/hAmylin funct. [1, 5]: 6.4 | Ratio hCT/hAmylin funct. [1, 6]: 6.4 | Ratio hCT/hAmylin funct. ([1]; Table 6i, hCTR funct. EC50 / hAmylin-R funct. EC50): 6.4 | EC50 ([1]; Table 6i, human amylin receptor functional): 0.112 nM | Ratio hCT/hAmylin funct. [1, 7]: 6.4 | Ratio hCT/hAmylin funct. [1, 8]: 6.4 | EC50 [2]: 0.717 nM | Ratio hCT/hAmylin binding (human amylin receptor; Table 7b, human calcitonin receptor binding IC50 divided by human amylin receptor binding IC50): 16.0 | IC50 (human amylin receptor): 0.204 nM | Ratio hCT/hAmylin binding (human amylin receptor; human binding ratio, included for comparison): 16.0 | IC50 [3]: 3.26 nM
